Source: ChEMBL document CHEMBL2203136, “Synthesis, characterization, biological evaluation and QSAR studies of 11-p-substituted phenyl-12-phenyl-11a,12-dihydro-11H-indeno[2,1-c][1,5]benzothiazepines as potential antimicrobial agents” (Eur J Med Chem, 2012)
Values after ≈ are worked out from the molar mass of the structure shown. Active and inactive are the calls of the source. No cut-off for these calls is given here.

What was measured:
[1] = Octanol-water partition coefficient, log P of the compound; assay type: physicochemical
Pseudomonas aeruginosa [2] = assay: Antibacterial activity against Pseudomonas aeruginosa MTCC 7952 after 24 hrs by serial dilution method; assay type: functional; settings: for MIC: Pseudomonas aeruginosa, MTCC 7952, 24 h
Staphylococcus aureus [3] = assay: Antibacterial activity against Staphylococcus aureus MTCC 7443 after 24 hrs by serial dilution method; assay type: functional; settings: for MIC: Staphylococcus aureus, MTCC 7443, 24 h
Aspergillus fumigatus [4] = assay: Antifungal activity against Aspergillus fumigatus MTCC 2550 after 72 hrs by serial dilution method relative to 11,12-Diphenyl-11a,12-dihydro-11H-indeno[2,1-c][1,5]benzothiazepine; assay type: functional
Bacillus subtilis = assay: Antibacterial activity against Bacillus subtilis MTCC 441 after 24 hrs by serial dilution method
Aspergillus fumigatus [5] = assay: Antifungal activity against Aspergillus fumigatus MTCC 2550 after 72 hrs by serial dilution method; assay type: functional; settings: for MIC: Aspergillus fumigatus, MTCC 2550, 72 h
Escherichia coli [6] = assay: Antibacterial activity against Escherichia coli MTCC 42 after 24 hrs by serial dilution method; assay type: functional; settings: for MIC: Escherichia coli, MTCC 42, 24 h
Staphylococcus aureus [7] = assay: Antibacterial activity against Staphylococcus aureus MTCC 7443 after 24 hrs by serial dilution method relative to 11,12-Diphenyl-11a,12-dihydro-11H-indeno[2,1-c][1,5]benzothiazepine; assay type: functional
Pseudomonas aeruginosa [8] = assay: Antibacterial activity against Pseudomonas aeruginosa MTCC 7952 after 24 hrs by serial dilution method relative to 11,12-Diphenyl-11a,12-dihydro-11H-indeno[2,1-c][1,5]benzothiazepine; assay type: functional
Candida albicans [9] = assay: Antifungal activity against Candida albicans MTCC 183 after 72 hrs by serial dilution method; assay type: functional; settings: for MIC: Candida albicans, MTCC 183, 72 h
Escherichia coli [10] = assay: Antibacterial activity against Escherichia coli MTCC 42 after 24 hrs by serial dilution method relative to 11,12-Diphenyl-11a,12-dihydro-11H-indeno[2,1-c][1,5]benzothiazepine; assay type: functional
Candida albicans [11] = assay: Antifungal activity against Candida albicans MTCC 183 after 72 hrs by serial dilution method relative to 11,12-Diphenyl-11a,12-dihydro-11H-indeno[2,1-c][1,5]benzothiazepine; assay type: functional

SMILES: Clc1ccc2c(c1)SC(c1ccccc1)C1C(=N2)c2ccccc2C1c1ccccc1 (centres undefined)
- logP [1]: 7.48
- -logMIC (Pseudomonas aeruginosa [2]): 1.24
- MIC (Pseudomonas aeruginosa [2]): 57 µM (≈ 25 µg/mL)
- -logMIC (Staphylococcus aureus [3]): 1.55
- MIC (Staphylococcus aureus [3]): 28.5 µM (≈ 12.5 µg/mL)
- Activity (Aspergillus fumigatus [4]): 76.99%
- Activity (Bacillus subtilis): inactive
- -logMIC (Aspergillus fumigatus [5]): 1.55
- MIC (Aspergillus fumigatus [5]): 28.5 µM (≈ 12.5 µg/mL)
- -logMIC (Escherichia coli [6]): 1.85
- MIC (Escherichia coli [6]): 14.2 µM (≈ 6.22 µg/mL)
- Activity (Staphylococcus aureus [7]): 53.95%
- Activity (Pseudomonas aeruginosa [8]): 7.91%
- -logMIC (Candida albicans [9]): 1.55
- MIC (Candida albicans [9]): 28.5 µM (≈ 12.5 µg/mL)
- Activity (Escherichia coli [10]): 88.53%
- Activity (Candida albicans [11]): 53.95%

SMILES: Clc1ccc(C2Sc3cc(Cl)ccc3N=C3c4ccccc4C(c4ccccc4)C32)cc1 (centres undefined)
- logP [1]: 8
- -logMIC (Pseudomonas aeruginosa [2]): 0.98
- MIC (Pseudomonas aeruginosa [2]): 106 µM (≈ 50 µg/mL)
- -logMIC (Staphylococcus aureus [3]): 1.28
- MIC (Staphylococcus aureus [3]): 52.9 µM (≈ 25 µg/mL)
- Activity (Aspergillus fumigatus [4]): 94.67%
- Activity (Bacillus subtilis): inactive
- -logMIC (Aspergillus fumigatus [5]): 2.18
- MIC (Aspergillus fumigatus [5]): 6.6 µM (≈ 3.12 µg/mL)
- -logMIC (Escherichia coli [6]): 1.88
- MIC (Escherichia coli [6]): 13.2 µM (≈ 6.24 µg/mL)
- Activity (Staphylococcus aureus [7]): 14.53%
- Activity (Pseudomonas aeruginosa [8]): -70.92%
- -logMIC (Candida albicans [9]): 1.88
- MIC (Candida albicans [9]): 13.2 µM (≈ 6.24 µg/mL)
- Activity (Escherichia coli [10]): 89.34%
- Activity (Candida albicans [11]): 78.67%
